Experimental data from ChEMBL document CHEMBL4665668, “Design and development of molecular hybrids of 2-pyridylpiperazine and 5-phenyl-1,3,4-oxadiazoles as potential multifunctional agents to treat Alzheimer's disease” (Eur J Med Chem, 2019).
pIC50: −log10 of the molar value. The source made the active and inactive calls. The calls are words filed in the database; no cut-off is given here.

How the values were obtained:
Beta-secretase 1 = Beta-secretase 1 (Homo sapiens, UniProt P56817); test: Inhibition of human BACE-1 using MOCA-SEV-NL-DAEFR-DNP-RR as substrate preincubated with substrate followed by enzyme addition by FRET assay
Cholinesterase = Cholinesterase (Homo sapiens, UniProt P06276); test: Inhibition of human serum BChE using butyrylthiocholine iodide as substrate preincubated for 10 mins followed by substrate addition by Ellman's method; assay type: cell-free
Acetylcholinesterase [1] = molecular target: T1, Acetylcholinesterase (Homo sapiens, UniProt P22303); test: Inhibition of human erythrocytes AChE using acetylthiocholine iodide as substrate preincubated for 10 mins followed by substrate addition by Ellman's method; assay type: tissue-based, Erythrocyte
Acetylcholinesterase [2] = molecular target: T1, Acetylcholinesterase; settings: dose microM 5-20, time 48.0 hrs
[3] = Acute toxicity in Wistar rat assessed as abnormal signs at 100 to 500 mg/kg, po measured up to 14 days by OCED guideline method; assay type: organism-based; settings: in vivo, 336 h, dose 100-500 mg/kg, time 14 day
Rattus norvegicus [4] = test: Cognitive enhancing effect in po dosed scopolamine-induced Wistar rat model of amnesia assessed as increase in spontaneous alteration pretreated for 7 days followed by scopolamine challenge and measured after 30 mins by Y-maze test; assay type: functional, organism-based; settings: dose mg/kg 2.5-10, time 7.0 day
[5] = Acute toxicity in po dosed Wistar rat assessed as maximum tolerated dose by OCED guideline method; assay type: organism-based; settings: in vivo
[6] = molecular target: Amyloid-beta precursor protein (Homo sapiens) (UniProt P05067); settings: dose microM 5-20, time 48.0 hrs
[7] = Permeability of the compound in PBS/EtOH buffer (7:3) at 25 ug/ml after 18 hrs by PAMPA-BBB assay
SH-SY5Y = test: Neuroprotective activity against amyloid beta (1 to 42)-induced oxidative stress in human SH-SY5Y cells assessed as effect on cell viability at 10 to 80 uM measured after 24 hrs by MTT assay (reference value: 61 %); assay type: functional; settings: dose microM 10-80
Rattus norvegicus [8] = test: Cognitive enhancing effect in scopolamine-induced Wistar rat model of amnesia assessed as increase in spontaneous alteration at 10 mg/kg, po pretreated for 7 days followed by scopolamine challenge and measured after 30 mins by Y-maze test; assay type: functional, organism-based; settings: time 7.0 day

T1 sequence (P22303 whole entry): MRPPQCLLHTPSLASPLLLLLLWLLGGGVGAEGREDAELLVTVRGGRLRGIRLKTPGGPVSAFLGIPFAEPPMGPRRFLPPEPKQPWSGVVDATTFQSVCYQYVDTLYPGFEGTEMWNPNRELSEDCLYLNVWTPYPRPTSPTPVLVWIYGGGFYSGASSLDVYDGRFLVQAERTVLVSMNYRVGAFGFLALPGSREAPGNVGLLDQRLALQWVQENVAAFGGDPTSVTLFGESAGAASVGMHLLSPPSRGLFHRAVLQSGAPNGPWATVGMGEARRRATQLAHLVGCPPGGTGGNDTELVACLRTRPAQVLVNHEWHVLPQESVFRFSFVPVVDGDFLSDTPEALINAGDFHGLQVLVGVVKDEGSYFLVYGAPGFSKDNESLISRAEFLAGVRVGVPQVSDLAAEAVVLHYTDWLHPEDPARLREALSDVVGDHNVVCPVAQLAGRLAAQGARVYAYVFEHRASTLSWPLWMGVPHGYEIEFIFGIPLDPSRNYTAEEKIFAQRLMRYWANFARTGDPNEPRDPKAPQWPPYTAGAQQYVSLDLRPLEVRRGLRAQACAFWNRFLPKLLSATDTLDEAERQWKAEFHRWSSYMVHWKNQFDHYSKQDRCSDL
Sequence of Beta-secretase 1 (P56817 whole entry): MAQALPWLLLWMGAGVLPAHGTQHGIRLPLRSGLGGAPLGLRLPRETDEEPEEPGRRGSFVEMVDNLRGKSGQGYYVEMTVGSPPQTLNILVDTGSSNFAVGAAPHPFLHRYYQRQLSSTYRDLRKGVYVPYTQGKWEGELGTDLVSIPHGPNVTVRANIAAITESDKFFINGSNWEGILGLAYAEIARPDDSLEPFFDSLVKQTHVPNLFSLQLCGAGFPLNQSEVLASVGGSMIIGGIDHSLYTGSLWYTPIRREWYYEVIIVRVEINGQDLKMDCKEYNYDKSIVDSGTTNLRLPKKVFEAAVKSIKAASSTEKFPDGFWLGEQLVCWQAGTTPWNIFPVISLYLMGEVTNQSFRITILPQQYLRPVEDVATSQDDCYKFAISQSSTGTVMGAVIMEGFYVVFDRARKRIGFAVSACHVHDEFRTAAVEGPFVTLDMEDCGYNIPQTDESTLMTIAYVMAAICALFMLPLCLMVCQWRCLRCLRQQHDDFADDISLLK
Sequence of Cholinesterase (P06276 whole entry): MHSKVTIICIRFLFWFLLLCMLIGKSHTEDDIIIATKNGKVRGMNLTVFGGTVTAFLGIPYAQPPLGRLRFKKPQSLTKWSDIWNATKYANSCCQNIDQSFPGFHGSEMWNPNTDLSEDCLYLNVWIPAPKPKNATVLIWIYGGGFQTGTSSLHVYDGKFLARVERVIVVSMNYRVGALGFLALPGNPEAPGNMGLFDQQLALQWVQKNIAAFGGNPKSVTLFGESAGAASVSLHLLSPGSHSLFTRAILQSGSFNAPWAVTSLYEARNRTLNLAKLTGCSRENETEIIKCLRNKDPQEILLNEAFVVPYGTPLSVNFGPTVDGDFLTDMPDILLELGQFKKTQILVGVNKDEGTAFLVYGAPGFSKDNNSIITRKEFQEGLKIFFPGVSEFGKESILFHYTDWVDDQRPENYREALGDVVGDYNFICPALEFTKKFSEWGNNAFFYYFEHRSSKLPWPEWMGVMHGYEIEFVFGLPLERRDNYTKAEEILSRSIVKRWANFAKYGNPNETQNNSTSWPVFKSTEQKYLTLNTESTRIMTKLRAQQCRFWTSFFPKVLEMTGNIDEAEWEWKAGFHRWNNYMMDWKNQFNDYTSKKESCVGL
Sequence of Amyloid-beta precursor protein (Homo sapiens) (P05067 whole entry): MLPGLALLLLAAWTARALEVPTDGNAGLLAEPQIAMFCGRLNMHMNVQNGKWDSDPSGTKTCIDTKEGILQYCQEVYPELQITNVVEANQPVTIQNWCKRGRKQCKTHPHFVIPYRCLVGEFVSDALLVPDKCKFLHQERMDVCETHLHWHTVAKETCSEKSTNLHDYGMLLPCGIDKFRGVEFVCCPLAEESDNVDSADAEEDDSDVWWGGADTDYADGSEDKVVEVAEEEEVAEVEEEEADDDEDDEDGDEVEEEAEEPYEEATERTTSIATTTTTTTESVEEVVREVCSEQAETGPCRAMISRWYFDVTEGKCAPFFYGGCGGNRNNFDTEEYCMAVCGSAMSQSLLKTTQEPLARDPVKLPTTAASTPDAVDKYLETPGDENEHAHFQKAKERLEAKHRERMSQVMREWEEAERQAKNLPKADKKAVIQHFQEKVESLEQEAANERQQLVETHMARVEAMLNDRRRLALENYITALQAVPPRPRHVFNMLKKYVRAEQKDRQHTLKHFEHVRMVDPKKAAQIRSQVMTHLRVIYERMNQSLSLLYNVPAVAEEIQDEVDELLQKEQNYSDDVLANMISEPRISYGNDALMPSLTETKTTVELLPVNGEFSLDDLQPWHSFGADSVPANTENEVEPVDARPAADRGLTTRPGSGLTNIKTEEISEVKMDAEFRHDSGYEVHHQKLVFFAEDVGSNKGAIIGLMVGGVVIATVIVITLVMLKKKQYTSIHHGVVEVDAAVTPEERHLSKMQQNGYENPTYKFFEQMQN

SMILES | pIC50 (Beta-secretase 1) | pIC50 (Cholinesterase) | pIC50 (Acetylcholinesterase [1]) | other results
O=C(N/N=C/c1ccc(Cl)cc1)N1CCN(c2ccccn2)CC1 | 5.53 | 5.32 | 5.47 | –
COc1cc(/C=N/NC(=O)N2CCN(c3ccccn3)CC2)cc(OC)c1OC | 5.33 | 5.33 | 5.24 | –
Brc1ccc(-c2nnc(N3CCN(c4ccccn4)CC3)o2)cc1 | 6.90 | 6.07 | 7.13 | Flu intensity (Acetylcholinesterase [2]): 0.6; Activity [3]: Non-Toxic; Activity (Rattus norvegicus [4]): Dose-dependent effect; MTD [5]: 100 mg/kg; Flu intensity [6]: 0.42; Papp at 18 h, 25 ug/ml [7]: 5.9 ×10⁻⁶ cm/s; Activity (SH-SY5Y): 63%; Activity (Rattus norvegicus [8]): Active
O=[N+]([O-])c1ccc(-c2nnc(N3CCN(c4ccccn4)CC3)o2)cc1 | 5.87 | 5.54 | 6.66 | –
O=C(N/N=C/c1ccc(O)cc1)N1CCN(c2ccccn2)CC1 | 5.33 | 5.21 | 5.32 | –
O=C(N/N=C/c1ccccc1O)N1CCN(c2ccccn2)CC1 | 5.23 | < 5.00 | < 5.00 | –
Clc1ccc(-c2nnc(N3CCN(c4ccccn4)CC3)o2)cc1 | 5.88 | 5.74 | 6.99 | –
FC(F)(F)Oc1ccc(-c2nnc(N3CCN(c4ccccn4)CC3)o2)cc1 | 6.09 | 5.71 | 7.05 | Papp at 18 h, 25 ug/ml [7]: 6.8 ×10⁻⁶ cm/s
Cc1cccc(/C=N/NC(=O)N2CCN(c3ccccn3)CC2)c1 | 5.36 | < 5.00 | < 5.00 | –
O=C(N/N=C/c1ccccc1)N1CCN(c2ccccn2)CC1 | 5.11 | 5.37 | 5.44 | –
O=C(N/N=C/c1ccc(F)cc1)N1CCN(c2ccccn2)CC1 | 5.91 | 5.40 | 5.73 | –
COc1cccc(-c2nnc(N3CCN(c4ccccn4)CC3)o2)c1OC | 5.67 | 5.28 | 5.92 | –
Cc1cccc(-c2nnc(N3CCN(c4ccccn4)CC3)o2)c1 | 5.58 | < 5.00 | 5.28 | –
Oc1ccccc1-c1nnc(N2CCN(c3ccccn3)CC2)o1 | 5.65 | 5.09 | 5.91 | –
Oc1ccc(-c2nnc(N3CCN(c4ccccn4)CC3)o2)cc1 | 5.75 | 5.22 | 5.93 | –
FC(F)(F)c1ccc(-c2nnc(N3CCN(c4ccccn4)CC3)o2)cc1 | 6.33 | 5.67 | 6.74 | Papp at 18 h, 25 ug/ml [7]: 6.3 ×10⁻⁶ cm/s
